Measurements as given in US9309225B2, “N-((1-benzyl-1H-1,2,3-triazol-4-yl)methyl)arylamide compounds as potential anticancer agents and a process for the preparation thereof” (COUNCIL OF SCIENTIFIC & INDUSTRIAL RESEARCH, priority 2013, dated 2016).

Tests used:
Type in all cases: cell-based
[1] = test system: HL-60(TB); assay: NCI sixty human tumor cell line screen, Leukemia panel; settings: NCI protocol
Description: (§1) The in vitro anticancer activity studies for these N-((1-benzyl-1H-1,2,3-triazol-4-yl)methyl) arylamide analogues were carried out at the National Cancer Institute, USA.
(§2) The N-((1-benzyl-1H-1,2,3-triazol-4-yl)methyl)arylamide analogues have been tested at NCI, USA, against sixty human tumor cell lines derived from nine cancer types (leukemia, non-small cell lung cancer, colon cancer, CNS cancer, melanoma cancer, ovarian cancer, renal cancer, prostate cancer and breast cancer). For these compounds results are expressed as growth inhibition (GI50) values as per NCI protocol.

[2] = test system: K-562; assay: as above; settings: K562, K-562, Leukemia, NCI protocol
Description: as §1, §2

[3] = test system: MOLT-4; assay: as above; settings: MOLT-4, Leukemia, NCI protocol
Description: as §1, §2

[4] = test system: RPMI-8226; assay: as above; settings: RPMI-8226, Leukemia, NCI protocol
Description: as §1, §2

[5] = test system: SR; assay: as above; settings: NCI protocol
Description: as §1, §2

[6] = test system: NCI-H23; assay: NCI sixty human tumor cell line screen, Non-small-cell-lung panel; settings: NCI protocol
Description: as §1, §2

[7] = test system: HCC-2998; assay: NCI sixty human tumor cell line screen, Colon panel; settings: HCC-2998, Colon, NCI protocol
Description: as §1, §2

[8] = test system: HCT-15; assay: as above; settings: HCT-15, Colon, NCI protocol
Description: as §1, §2

[9] = test system: UACC-257; assay: NCI sixty human tumor cell line screen, Melanoma panel; settings: UACC-257, Melanoma, NCI protocol
Description: as §1, §2

[10] = test system: IGROV1; assay: NCI sixty human tumor cell line screen, Ovarian panel; settings: IGROV-1, NCI protocol
Description: as §1, §2

[11] = test system: 786-0; assay: NCI sixty human tumor cell line screen, Renal panel; settings: 786-0, Renal, NCI protocol
Description: as §1, §2

[12] = test system: HS 578T; assay: NCI sixty human tumor cell line screen, Breast panel; settings: NCI protocol
Description: as §1, §2

[13] = test system: A549; assay: IC50 of compounds and E7010 against A549 cell line
Excerpt: (§3) In the present investigation, an attempt has been made, in view of the biological importance of both 2-anilino nicotinyl structure and 1,2,3-triazoles group. […] Introduction of triazole group on 2-anilino nicotinyl moiety resulted that there is enhancement of biological activity of representative compounds (1a, 1b, 1c, 1d, 1f, 1g, 1i, 1k, 6b and 6g) compare with E7010. Biological data of representative compounds has been provided in Table 1. • (Novel sulfonamides as potential, systemically active antitumor agents. Yoshino, H.; Ueda, N.; Niijima, J.; Sugumi, H.; Kotake, Y.; Koyanagi, N.; Yoshimatsu, K.; Asada, M.; Watanabe, T.; Nagasu, T. J. Med. Chem. 1992, 35, 2496-2497)

[14] = test system: HOP-92; assay: NCI sixty human tumor cell line screen, Non-small-cell-lung panel; settings: HOP-92, Non-small-cell-lung, NCI protocol
Description: as §1, §2

[15] = test system: NCI-H322M; assay: as above; settings: NCI protocol
Description: as §1, §2

[16] = test system: MALME-3M; assay: NCI sixty human tumor cell line screen, Melanoma panel; settings: NCI protocol
Description: as §1, §2

[17] = test system: OVCAR-5; assay: NCI sixty human tumor cell line screen, Ovarian panel; settings: OVCAR-5, Ovarian, NCI protocol
Description: as §1, §2

[18] = test system: MCF7; assay: NCI sixty human tumor cell line screen, Breast panel; settings: NCI protocol
Description: as §1, §2

[19] = test system: MCF-7; assay: IC50 of compounds and E7010 against MCF-7 cell line
Excerpt: as §3

[20] = Homo sapiens, A549, A549 cell line
[21] = Homo sapiens, MCF7, MCF-7 cell line

O=C(NCc1cn(Cc2cccc(Oc3ccccc3)c2)nn1)c1cccnc1Nc1ccccc1 [Compound 1a, N-((1-(3-Phenoxybenzyl)-1H-1,2,3-triazol-4-yl)methyl)-2-(phenylamino)nicotinamide]
GI50 [1]: 3.74 µM
GI50 [2]: 3.69 µM
GI50 [3]: 3.74 µM
GI50 [4]: 3.61 µM
GI50 [5]: 2.56 µM
GI50 [6]: 3.73 µM
GI50 [7]: 3.7 µM
GI50 [8]: 3.81 µM
GI50 [9]: 1.42 µM
GI50 [10]: 30.7 µM
GI50 [11]: 23.2 µM
GI50 [12]: 30.9 µM
IC50 ([13]; A549 cell line): 1.54 µM
IC50 [13, 20]: 1.25 to 3.98 µM

O=C(NCc1cn(Cc2cccc(Oc3ccccc3)c2)nn1)c1cccnc1Nc1ccc(F)cc1 [Compound 1b, 2-(4-Fluorophenylamino)-N-((1-(3-phenoxybenzyl)-1H-1,2,3-triazol4-yl)methyl)nicotinamide]
GI50 [14]: 10.7 µM
GI50 [6]: 29.9 µM
GI50 [15]: 5.29 µM
GI50 [16]: 15.1 µM
GI50 [9]: 6.87 µM
GI50 [10]: 5.89 µM
GI50 [17]: 4.23 µM
GI50 [11]: 5.59 µM
GI50 [12]: 5.9 µM
IC50 ([13]; A549 cell line): 1.69 µM
IC50 [13, 20]: 1.25 to 3.98 µM

COc1ccc(Nc2ncccc2C(=O)NCc2cn(Cc3cccc(Oc4ccccc4)c3)nn2)cc1 [Compound 1e, 2-(4-Methoxyphenylamino)-N-((1-(3-phenoxybenzyl)-1H-1,2,3-triazol-4-yl)methyl) nicotinamide]
GI50 [1]: 2.66 µM
GI50 [2]: 3.48 µM
GI50 [3]: 2.91 µM
GI50 [4]: 4.84 µM
GI50 [14]: 5.67 µM
GI50 [6]: 3.45 µM
GI50 [15]: 5.24 µM
GI50 [7]: 2.53 µM
GI50 [8]: 3.93 µM
GI50 [16]: 3.8 µM
GI50 [9]: 4.82 µM
GI50 [17]: ≥ 100 µM
GI50 [11]: 6.73 µM

COc1ccc(Nc2ncccc2C(=O)NCc2cn(Cc3cccc(Oc4ccccc4)c3)nn2)c(OC)c1 [Compound 1g, 2-(2,4-Dimethoxyphenylamino)-N-((1-(3-phenoxybenzyl)-1H-1,2,3-triazol-4-yl)methyl) nicotinamide]
GI50 [1]: 2.21 µM
GI50 [2]: 0.75 µM
GI50 [3]: 3.65 µM
GI50 [4]: 3.03 µM
GI50 [6]: 2.24 µM
GI50 [7]: 3.33 µM
GI50 [8]: 2.89 µM
GI50 [16]: 4.07 µM
GI50 [10]: 5.96 µM
GI50 [17]: 8.34 µM
GI50 [11]: 4.06 µM
GI50 [12]: 2.94 µM
GI50 [18]: 0.65 µM
IC50 ([13]; A549 cell line): 1.57 µM
IC50 [13, 20]: 1.25 to 3.98 µM
IC50 [19, 21]: 0.74 to 2.51 µM
IC50 ([19]; MCF-7 cell line): 0.74 µM

COc1cc(Nc2ncccc2C(=O)NCc2cn(Cc3cccc(Oc4ccccc4)c3)nn2)cc(OC)c1 [Compound 1i, 2-(3,5-Dimethoxyphenylamino)-N-((1-(3-phenoxybenzyl)-1H-1,2,3-triazol-4-yl)methyl) nicotinamide]
GI50 [1]: 3.97 µM
GI50 [2]: 5.05 µM
GI50 [3]: 4.85 µM
GI50 [4]: 5.25 µM
GI50 [14]: 4.67 µM
GI50 [6]: 6.22 µM
GI50 [15]: 6.15 µM
GI50 [7]: 9.6 µM
GI50 [8]: 3.89 µM
GI50 [16]: 5.81 µM
GI50 [9]: 4.86 µM
GI50 [17]: ≥ 100 µM
GI50 [11]: 6.73 µM
IC50 ([13]; A549 cell line): 1.93 µM
IC50 [13, 20]: 1.25 to 3.98 µM
IC50 [19, 21]: 0.74 to 2.51 µM
IC50 ([19]; MCF-7 cell line): 0.93 µM

O=C(NCc1cn(Cc2cccc(Oc3ccccc3)c2)nn1)c1cccnc1NCc1ccc(Cl)cc1 [Compound 1k, 2-(4-Chlorobenzylamino)-N-((1-(3-phenoxybenzyl)-1H-1,2,3-triazol-4-yl)methyl) nicotinamide]
GI50 [1]: 3.39 µM
GI50 [2]: 3.24 µM
GI50 [3]: 3.28 µM
GI50 [4]: 3.12 µM
GI50 [5]: 3.31 µM
GI50 [14]: 4.23 µM
GI50 [7]: 4.17 µM
GI50 [8]: 3.39 µM
GI50 [16]: 5.69 µM
GI50 [9]: 3.83 µM
GI50 [10]: 9.03 µM
GI50 [17]: 5.62 µM
GI50 [12]: 2.72 µM
GI50 [18]: 2.99 µM
IC50 ([13]; A549 cell line): 1.79 µM
IC50 [13, 20]: 1.25 to 3.98 µM
